Measured values taken from US20210198277A1, “AMINE-SUBSTITUTED ARYL OR HETEROARYL COMPOUNDS” (Epizyme, Inc., priority 2016, published 2021).

The molecules below were run against T1, EHMT2 (Homo sapiens, UniProt Q96KQ7) (assay: MDA-MB-231 H3K9me2 in-cell Western assay (EHMT2 ICW)). Settings: Table III; MDA-MB-231 H3K9me2 in-cell Western; read-out: EHMT2 ICW (IC50 μM).
T1 construct: host or cells: MDA-MB-231
T1 sequence (Q96KQ7 1-1210): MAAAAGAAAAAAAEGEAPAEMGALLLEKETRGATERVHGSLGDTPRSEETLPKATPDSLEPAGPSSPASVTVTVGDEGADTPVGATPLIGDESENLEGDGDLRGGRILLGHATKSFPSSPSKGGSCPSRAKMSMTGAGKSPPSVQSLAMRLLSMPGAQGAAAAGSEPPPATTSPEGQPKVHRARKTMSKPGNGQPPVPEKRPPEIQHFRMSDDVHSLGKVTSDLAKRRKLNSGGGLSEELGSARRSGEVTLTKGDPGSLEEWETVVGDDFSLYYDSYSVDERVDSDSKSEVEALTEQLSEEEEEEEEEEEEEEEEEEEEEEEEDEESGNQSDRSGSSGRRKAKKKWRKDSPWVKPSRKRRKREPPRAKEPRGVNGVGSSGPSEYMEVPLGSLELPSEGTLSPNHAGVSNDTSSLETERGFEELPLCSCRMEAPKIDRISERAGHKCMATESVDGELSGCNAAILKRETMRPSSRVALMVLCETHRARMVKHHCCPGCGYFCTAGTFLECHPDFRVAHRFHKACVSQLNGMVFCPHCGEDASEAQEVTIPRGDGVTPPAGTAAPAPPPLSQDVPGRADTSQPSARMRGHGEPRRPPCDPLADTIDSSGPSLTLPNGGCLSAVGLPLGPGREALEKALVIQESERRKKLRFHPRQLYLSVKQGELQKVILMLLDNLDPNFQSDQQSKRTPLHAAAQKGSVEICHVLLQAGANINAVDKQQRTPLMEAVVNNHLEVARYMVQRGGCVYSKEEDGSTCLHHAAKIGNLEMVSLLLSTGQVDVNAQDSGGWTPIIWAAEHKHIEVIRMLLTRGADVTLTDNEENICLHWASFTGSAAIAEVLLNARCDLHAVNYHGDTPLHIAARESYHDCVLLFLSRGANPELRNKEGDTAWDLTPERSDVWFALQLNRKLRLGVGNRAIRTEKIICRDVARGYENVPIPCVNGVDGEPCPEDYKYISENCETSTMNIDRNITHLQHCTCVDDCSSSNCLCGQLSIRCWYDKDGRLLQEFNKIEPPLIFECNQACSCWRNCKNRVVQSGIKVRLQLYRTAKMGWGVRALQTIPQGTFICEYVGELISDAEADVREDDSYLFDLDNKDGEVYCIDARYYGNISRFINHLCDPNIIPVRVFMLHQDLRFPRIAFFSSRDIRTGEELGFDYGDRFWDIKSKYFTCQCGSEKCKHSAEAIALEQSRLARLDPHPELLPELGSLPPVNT
Format: cell-based
Summary of the method: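 Cellular dimethyl-H3K9 is quantified by in-cell Western in MDA-MB-231 cells treated with compound for 48 h. The H3K9me2 signal at 800 nm is normalised to DRAQ5 nuclear stain at 700 nm. IC50 is calculated from triplicate concentration points by nonlinear regression.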

`CNc1cc(C)nc(Nc2cccc(OCCCN3CCCC3)c2)n1` [Compound 391] and `CNc1ccnc(Nc2ccc(Cl)c(OCCCN3CCCC3)c2)n1` [Compound 398] fall in the same range of IC50: 1 to 10 µM for the first, 1 to 10 µM for the second.

First: COc1ccc(Nc2nccc(NCC(F)(F)F)n2)cc1OCCCN1CCCC1 [Compound 392]
Second: CNc1ccnc(Nc2ccc(OC)c(OCCCN3CC(O)C3)c2)n1 [Compound 414, 1-(3-(2-methoxy-5-((4-(methylamino)pyrimidin-2-yl)amino)phenoxy)propyl)azetidin-3-ol]
The IC50 of the first is higher: 1 to 10 µM for the first, 0.1 to 1 µM for the second.

First: CNc1ccnc(Nc2ccc(OC)c(OCC3CCN(C)C3)c2)n1 (centres unmarked) [Compound 393]
Second: CNc1ccnc(Nc2ccc(OC)c(OCC3CCCN(C)C3)c2)n1 (centres unmarked) [Compound 412, N^2-(4-methoxy-3-((1-methylpiperidin-3-yl)methoxy)phenyl)-N^4-methylpyrimidine-2,4-diamine]
The IC50 of the first is lower: 0.1 to 1 µM for the first, 1 to 10 µM for the second. The first is the more potent here.

`CCNC(=O)c1cccc(Nc2nccc(NC)n2)c1` [Compound 394] and `CCNC(=O)c1cc(Nc2nccc(NC)n2)ccc1Cl` [Compound 396] cannot be ordered by IC50: > 10 µM for the first, > 10 µM for the second.

Compared with `CCNC(=O)c1cc(Nc2nccc(NC)n2)ccc1OC` [Compound 395], `CNc1ccnc(Nc2ccc(OC)c(COC3CCN(C)C3)c2)n1` (centres unmarked) [Compound 407, N^2-(4-methoxy-3-(((1-methylpyrrolidin-3-yl)oxy)methyl)phenyl)-N^4-methylpyrimidine-2,4-diamine] is lower in IC50: > 10 µM for the first, 0.1 to 1 µM for the second.

`CNc1ccnc(Nc2cccc(N3CCC(N(C)C)C3)c2)n1` (centres unmarked) [Compound 397] and `CNc1ccnc(Nc2cccc(N3CCC(N)C3)c2)n1` (centres unmarked) [Compound 400] cannot be ordered by IC50: > 10 µM for the first, > 10 µM for the second.

`COc1ccc(Nc2ccc3cn(C)nc3n2)cc1OCCCN1CCCC1` [Compound 402] and `CNc1ccnc(Nc2ccc(OC)c(OCC3CCN(CCOC)C3)c2)n1` (centres unmarked) [Compound 410, N^2-(4-methoxy-3-((1-(2-methoxyethyl)pyrrolidin-3-yl)methoxy)phenyl)-N^4-methylpyrimidine-2,4-diamine] cannot be ordered by IC50: > 10 µM for the first, > 10 µM for the second.

`CNc1ccnc(Nc2ccc3cn(CCN(C)C)nc3c2)n1` [Compound 404, N^2-(2-(2-(dimethylamino)ethyl)-2H-indazol-6-yl)-N^4-methylpyrimidine-2,4-diamine] and `CNc1ccnc(Nc2ccc3cn(CCCN(C)C)nc3c2)n1` [Compound 405] cannot be ordered by IC50: > 10 µM for the first, > 10 µM for the second.

Compared with `CCN1CCC(COc2cc(Nc3nccc(NC)n3)ccc2OC)C1` (centres unmarked) [Compound 408, N^2-(3-((1-ethylpyrrolidin-3-yl)methoxy)-4-methoxyphenyl)-N^4-methylpyrimidine-2,4-diamine], `CCCN1CCC(COc2cc(Nc3nccc(NC)n3)ccc2OC)C1` (centres unmarked) [Compound 420, N^2-(4-methoxy-3-((1-propylpyrrolidin-3-yl)methoxy)phenyl)-N^4-methylpyrimidine-2,4-diamine] is higher in IC50: 0.1 to 1 µM for the first, 1 to 10 µM for the second.

`CNc1ccnc(Nc2ccc(OC)c(OCC3CCN(C(C)C)C3)c2)n1` (centres unmarked) [Compound 409, N^2-(3-((1-isopropylpyrrolidin-3-yl)methoxy)-4-methoxyphenyl)-N^4-methylpyrimidine-2,4-diamine] and `CNc1ccnc(Nc2ccc(OC)c(OCC3CCN(C4CC4)C3)c2)n1` (centres unmarked) [Compound 411, N^2-(3-((1-cyclopropylpyrrolidin-3-yl)methoxy)-4-methoxyphenyl)-N^4-methylpyrimidine-2,4-diamine] fall in the same range of IC50: 0.1 to 1 µM for the first, 0.1 to 1 µM for the second.

First: CNc1cc(C)nc(Nc2ccc(OC)c(OCC3CCCN(C)C3)c2)n1 (centres unmarked) [Compound 413, N^2-(4-methoxy-3-((1-methylpiperidin-3-yl)methoxy)phenyl)-N^4,6-dimethylpyrimidine-2,4-diamine]
Second: CNc1cc(C)nc(Nc2ccc(OC)c(COC3CCN(C)C3)c2)n1 (centres unmarked) [Compound 421, N^2-(4-methoxy-3-(((1-methylpyrrolidin-3-yl)oxy)methyl)phenyl)-N^4,6-dimethylpyrimidine-2,4-diamine]
The IC50 of the first is lower: 0.1 to 1 µM for the first, 1 to 10 µM for the second.

`CNc1ccnc(Nc2ccc(OC)c(OCC3CCN(CC4CC4)C3)c2)n1` (centres unmarked) [Compound 422, N^2-(3-((1-(cyclopropylmethyl)pyrrolidin-3-yl)methoxy)-4-methoxyphenyl)-N^4-methylpyrimidine-2,4-diamine] was tested, and the IC50 was 1 to 10 µM.
